ChEMBL document CHEMBL1781901, “Toluidinesulfonamide hypoxia-induced factor 1 inhibitors: alleviating drug-drug interactions through use of PubChem data and comparative molecular field analysis guided synthesis” (J Med Chem, 2011)

Legend:
Cytochrome P450 2C9 = Cytochrome P450 2C9 (Homo sapiens, UniProt P11712); assay: Inhibition of CYP2C9 after 30 mins by luminescence assay; format: ADME
[1] = Inhibition of HIF-1 in human deferoxamine treated HCT-116 cells expressing HRE-bla gene pretreated for 30 mins before deferoxamine challenge measured after 24 hrs by fluorometric analysis; format: cell-based

Sequence of Cytochrome P450 2C9 (P11712 whole entry): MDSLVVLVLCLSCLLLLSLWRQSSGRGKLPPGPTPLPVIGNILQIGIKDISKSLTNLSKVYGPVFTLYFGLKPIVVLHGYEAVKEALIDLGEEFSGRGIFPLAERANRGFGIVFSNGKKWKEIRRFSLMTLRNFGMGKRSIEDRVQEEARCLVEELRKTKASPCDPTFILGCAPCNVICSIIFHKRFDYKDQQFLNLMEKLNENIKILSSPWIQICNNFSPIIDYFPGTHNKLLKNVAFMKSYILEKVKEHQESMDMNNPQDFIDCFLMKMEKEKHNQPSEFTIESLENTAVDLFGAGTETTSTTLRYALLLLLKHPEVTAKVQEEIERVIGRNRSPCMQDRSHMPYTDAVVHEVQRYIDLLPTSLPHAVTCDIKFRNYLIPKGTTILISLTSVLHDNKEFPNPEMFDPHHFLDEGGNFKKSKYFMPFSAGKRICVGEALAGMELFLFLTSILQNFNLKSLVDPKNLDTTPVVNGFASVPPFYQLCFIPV

| SMILES | EC50 (Cytochrome P450 2C9) | pIC50 [1] |
| --- | --- | --- |
| COC(=O)c1ccc(C)c(N(C)S(=O)(=O)c2ccc(C)cc2)c1 | 15.8 µM | 5.8 |
| COC(=O)c1ccc(C)c(NS(=O)(=O)c2ccc(OC)c(OC)c2)c1 | 2.51 µM | < 5 |
| COC(=O)c1ccc2c(c1)N(S(=O)(=O)c1ccc(C)cc1)CCO2 | 3.98 µM | 7 |
| COC(=O)c1ccc(C)c(N(C)S(=O)(=O)c2ccc(OC)cc2)c1 | 25.1 µM | 6.2 |

Continued, values first:

| EC50 (Cytochrome P450 2C9) | pIC50 [1] | SMILES |
| --- | --- | --- |
| 1.58 µM | 7.4 | COC(=O)c1ccc(C)c(NS(=O)(=O)c2ccc(C)cc2)c1 |
| 39.8 µM | 5.5 | COC(=O)c1ccc(OC)c(NS(=O)(=O)c2ccc(OC)cc2)c1 |
| 3.98 µM | 7.2 | COC(=O)c1ccc(C)c(NS(=O)(=O)c2ccc(OC)cc2)c1 |
| 0.251 µM | 4.7 | COC(=O)c1ccc(C)c(NS(=O)(=O)c2ccc(NC(C)=O)cc2)c1 |
